Read-outs that look alike come from different tables or passages of the source. Where a SMILES comes first, the peptide text is derived from it. The star is where a group is joined. 3Phenanthroyl(9,10-dioxo) = O=C1C(=O)c2ccc(C(=O)*)cc2-c2ccccc21; X1 = O=C1C(=O)c2cc(N*)ccc2-c2ccccc21
Columns and labels:
CD45 [1] = molecular target: T1, CD45 (Homo sapiens, UniProt P08575); assay: Phosphatase assay using lck 10-mer as substrate; assay type: biochemical; settings: CD45 phosphatase, lck carboxy-terminal peptide TEGQpYQPQP substrate, pH 7.2; read-out: Ick IC50
T1 construct: incubating the cytosolic portion of CD45 with the compounds and p-nitrophenyl phosphate (pNPP); purchased BIOMOL (Plymouth Meeting, Pa.)
T1 sequence (P08575 599-1306 limits assumed): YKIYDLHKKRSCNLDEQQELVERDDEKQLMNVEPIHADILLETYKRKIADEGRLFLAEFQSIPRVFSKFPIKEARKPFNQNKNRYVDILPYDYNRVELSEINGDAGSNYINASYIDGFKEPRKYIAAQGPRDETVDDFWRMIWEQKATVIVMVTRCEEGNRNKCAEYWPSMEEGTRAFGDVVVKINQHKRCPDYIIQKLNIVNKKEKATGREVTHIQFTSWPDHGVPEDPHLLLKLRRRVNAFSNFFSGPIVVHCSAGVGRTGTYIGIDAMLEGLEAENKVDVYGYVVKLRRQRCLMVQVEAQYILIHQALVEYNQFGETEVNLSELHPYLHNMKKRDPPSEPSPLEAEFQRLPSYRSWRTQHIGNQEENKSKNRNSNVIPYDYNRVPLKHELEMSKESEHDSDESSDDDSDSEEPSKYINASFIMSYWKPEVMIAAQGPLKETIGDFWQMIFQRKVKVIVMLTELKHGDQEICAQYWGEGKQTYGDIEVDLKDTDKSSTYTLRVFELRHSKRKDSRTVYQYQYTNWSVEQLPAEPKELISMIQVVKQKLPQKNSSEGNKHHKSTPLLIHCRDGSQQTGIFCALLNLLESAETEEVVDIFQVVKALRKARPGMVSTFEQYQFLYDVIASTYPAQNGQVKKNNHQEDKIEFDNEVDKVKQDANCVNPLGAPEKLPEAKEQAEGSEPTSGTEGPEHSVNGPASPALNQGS
Procedure: Phosphatase assay using lck 10-mer as substrate:
Phosphatase activity was assayed in 96 well plates in a buffer containing final concentrations of 25 mM HEPES at pH 7.2, 5 mM DTT and 10 μg/mL BSA using the lck carboxy-terminal peptide TEGQpYQPQP as the substrate (Cho, H., Krishnaraj, R., Itoh, M., Kitas, E., Bannwarth, W., Saito, H., Walsh, C. T. 1993. Substrate specificities of catalytic fragments of protein tyrosine phosphatases (HPTPb, LAR, and CD45) toward the phosphotyrosylpeptide substrates and thiophosphotyrosylated peptides as inhibitors. Protein Science 2:977-984). Compounds were tested in a range from 30 to 0.01 μM in a final concentration of 5% DMSO. Enzyme was incubated with substrate with or without compound, at room temperature for 1.5 h. At the end of the incubation period, BIOMOL “Green Reagent” (BIOMOL, Plymouth Meeting, Pa.) was added to each well, the plates incubated at room temperature for 30 min and absorbance read at 620 nm.

[2] = Cytotoxicity assay (Calcein-AM uptake); settings: human, PHA-expanded T-cell lymphoblasts from PBMC
Procedure: Calcein-AM (Molecular Probes. Eugene, Oreg.) uptake, as a quantitative measure of cell viability, was used to evaluate the toxic effect of compounds on T cells.
The T-cell lymphoblasts were purified by separation over Lymphoprep, plated at 2×10^5/well in a round bottom 96-well plate containing RPMI with compound and incubated overnight at 37° C. in an incubator containing 5% CO2. The dilution scheme and culture media were the same as those used in the T-cell proliferation assay. After the incubation period, cells were washed with Dulbecco's phosphate-buffered saline (D-PBS) and incubated with 1 μM Calcein-AM for 30-45 mim in D-PBS as described in the technical sheet provided with The LIVE/DEAD Viability/Cytotoxicity Kit from Molecular Probes.

CD45 [3] = molecular target: T1, CD45; assay: Phosphatase assay using pNPP as substrate; assay type: biochemical
Procedure: Phosphatase assay using pNPP as substrate:
CD45 enzyme was obtained from BIOMOL (Plymouth Meeting, Pa.). Phosphatase activity was assayed in a buffer containing final concentrations of 25 mM imidazole at pH 7.0, 50 mM NaCl, 2.5 mM ethylenediaminetetraacetic acid (“EDTA”), 5 mM dithiothreitol (“DTT”) and 10 μg/mL bovine serum albumin (“BSA”) using pNPP as a substrate.

T cells (PBMC) = assay: cells; assay type: cell-based, human; settings: read-out: T cell prolif. IC50
Procedure: Cell isolation and T cell proliferation assay:
Whole blood was obtained from healthy human blood donors. Peripheral blood mononuclear cells (“PBMC”) were isolated using Lymphoprep density-gradient centrifugation (Nycomed Amersham, Oslo, Norway), washed, counted and resuspended at 2×10^6 cells/mL in RPMI 1640 medium containing glutamine, 0.1 mg/mL gentamycin and 10% heat inactivated human serum. PBMC were transferred to 96-well plates (2×10^5 cells/well) containing compound or vehicle control, with the final concentration of DMSO not to exceed 0.3%, and incubated for 1 hour before addition of the activating anti-CD3 antibody, OKT3 (30ng/mL). After 24 hours in culture, the cells were pulsed with [^3H]thymidine (1 μCi/well) overnight and harvested the next day onto 96-well Packard GF/C filter plates using a Packard Cell Harvester (Packard Instruments, Meriden, Conn.). The filter plate was dried, the bottom of the plate sealed, 25 μL of Microscint 20 scintillation fluid added to each well, the top of the plate sealed with TopSeal-A, and the plate counted on a Packard TopCount. The data from the TopCount is transferred into Excel 5 (Microsoft, Redmond, Wash.) and formatted for EC50 determination using Prism software (GraphPad Software, San Diego, Calif.).

[4] = CD45 phosphatase, pNPP substrate, pH 7.0, read-out: pNPP IC50
[5] = human PBMC, OKT3 30 ng/mL, [3H]thymidine

IC50 (CD45 [1])	IC50 (CD45 [3]; [4])	SMILES	CC50 [2]	IC50 (T cells (PBMC); [5])	IC50 (CD45 [3])	IC50 (CD45 [3]; pH 7, read-out: pNPP IC50)	IC50 (T cells (PBMC); Homo sapiens)
11 µM	0.6 µM	O=C(Nc1ccc2c(c1)C(=O)C(=O)c1ccccc1-2)c1ccccc1F [Example 1, N-(9,10-Dioxo-9,10-dihydro-phenanthren-2-yl)-2-fluoro-benzamide]	20 µM	3.1 µM	–	–	–
11 µM	0.5 µM	O=C(COCc1ccccc1)Nc1ccc2c(c1)C(=O)C(=O)c1ccccc1-2 [Example 2, 2-Benzyloxy-N-(9,10-dioxo-9,10-dihydro-phenanthren-2-yl)-acetamide]	14 µM	1 µM	–	–	–
17 µM	0.7 µM	CCCC(=O)Nc1ccc2c(c1)C(=O)C(=O)c1ccccc1-2 [Example 3, N-(9,10-Dioxo-9,10-dihydro-phenanthren-2-yl)-butyramide]	8.2 µM	1.1 µM	–	–	–
3.8 µM	0.2 µM	CC(C)(C)C(=O)Nc1ccc2c(c1)C(=O)C(=O)c1ccccc1-2 [Example 4, N-(9,10-Dioxo-9,10-dihydro-phenanthren-2-yl)-2,2-dimethyl-propionamide]	3.5 µM	–	–	–	–
12 µM	0.3 µM	O=C1C(=O)c2cc(NC(=O)c3ccccc3[N+](=O)[O-])ccc2-c2ccccc21 [Example 5, N-(9,10-Dioxo-9,10-dihydro-phenanthren-2-yl)-2-nitro-benzamide]	8.2 µM	1 µM	–	–	–
5.8 µM	1.1 µM	O=C1C(=O)c2ccc(NC(=O)c3ccccc3C(F)(F)F)cc2-c2ccccc21 [Example 13, N-(9,10-Dioxo-9,10-dihydro-phenanthren-3-yl)-2-trifluoromethyl-benzamide]	14 µM	–	–	–	–
> 30 µM	12.9 µM	Cc1ccc(S(=O)(=O)N(c2ccc3c(c2)C(=O)C(=O)c2ccccc2-3)S(=O)(=O)c2ccc(C)cc2)cc1 [Example 14, N-(9,10-Dioxo-9,10-dihydro-phenanthren-2-yl)-4-methyl-N-[(4-methylphenyl)sulfonyl]-benzenesulfonamide]	5.3 µM	–	–	–	–
–	3.7 µM	O=C1C(=O)c2cc(-c3cc4ccccc4o3)ccc2-c2ccccc21 [Example 16, 2-Benzofuran-2-yl-phenanthrene-9,10-dione]	3.6 µM	–	–	–	–
–	0.75 µM	O=C1C(=O)c2cc(-c3ccccc3F)ccc2-c2ccccc21 [Example 18, 2-(2-Fluoro-phenyl)-phenanthrene-9,10-dione]	8.4 µM	–	–	–	–
–	0.99 µM	COc1ccccc1-c1ccc2c(c1)C(=O)C(=O)c1ccccc1-2 [Example 20, 2-(2-Methoxy-phenyl)-phenanthrene-9,10-dione]	8.9 µM	–	–	–	–
7.9 µM	2 µM	CC(=O)N[C@@H](C)C(=O)N[C@H](C(=O)N[C@@H](CCC(=O)O)C(=O)NCC(=O)N[C@@H](CCC(N)=O)C(=O)N[C@@H](CC(=O)Nc1ccc2c(c1)C(=O)C(=O)c1ccccc1-2)C(=O)O)[C@@H](C)O [Example 60] (Ac-ATEGQD(X1)-OH)	–	–	–	–	–
–	–	CC(=O)N[C@H](C(=O)N[C@@H](C)C(=O)N[C@H](C(=O)N[C@@H](CCC(=O)O)C(=O)NCC(=O)N[C@@H](CCC(N)=O)C(=O)N[C@@H](CC(=O)Nc1ccc2c(c1)C(=O)C(=O)c1ccccc1-2)C(=O)O)[C@@H](C)O)[C@@H](C)O [Example 61] (Ac-TATEGQD(X1)-OH)	–	–	–	1.8 µM	–
–	–	CC(=O)N[C@@H](Cc1ccccc1)C(=O)N[C@H](C(=O)N[C@@H](C)C(=O)N[C@H](C(=O)N[C@@H](CCC(=O)O)C(=O)NCC(=O)N[C@@H](CCC(N)=O)C(=O)N[C@@H](CC(=O)Nc1ccc2c(c1)C(=O)C(=O)c1ccccc1-2)C(=O)O)[C@@H](C)O)[C@@H](C)O [Example 62] (Ac-FTATEGQD(X1)-OH)	–	–	–	1.4 µM	–
3.7 µM	0.5 µM	COC(=O)CCCCCCC(=O)Nc1ccc2c(c1)C(=O)C(=O)c1ccccc1-2 [Example 71, 7-(9,10-Dioxo-9,10-dihydro-phenanthren-2-ylcarbamoyl)-heptanoic Acid Methyl Ester]	14 µM	–	–	–	–
–	> 30 µM	COC(=O)CCCCCCCCC(=O)Nc1ccc2c(c1)C(=O)C(=O)c1ccccc1-2 [Example 72, 9-(9,10-Dioxo-9,10-dihydro-phenanthren-2-ylcarbamoyl)-nonanoic Acid Methyl Ester]	–	–	–	–	–
2.9 µM	0.5 µM	COC(=O)CCC(=O)Nc1ccc2c(c1)C(=O)C(=O)c1cc(NC(=O)CCC(=O)OC)ccc1-2 [Example 82, N-[7-(3-Methoxycarbonyl-propionylamino)-9,10-dioxo-9,10-dihydro-phenanthren-2-yl]-succinamic Acid Methyl Ester]	7 µM	–	–	–	–
2.3 µM	0.4 µM	Nc1ccc2c(c1)C(=O)C(=O)c1ccccc1-2 [Example 87, 2-Amino-phenanthrene-9,10-dione]	5 µM	–	–	–	–
10.5 µM	3.74 µM	Nc1ccc2c(c1)-c1ccccc1C(=O)C2=O [Example 88, 3-Amino-phenanthrene-9,10-dione]	17 µM	–	–	–	–
3.2 µM	0.4 µM	COC(=O)CCC(=O)Nc1ccc2c(c1)-c1ccccc1C(=O)C2=O [Example 90, N-(9,10-Dioxo-9,10-dihydro-phenanthren-3-yl)-succinamic Acid Methyl Ester]	18 µM	–	–	–	–
3.9 µM	0.5 µM	O=C1C(=O)c2cccc([N+](=O)[O-])c2-c2ccccc21 [Example 93, 4-Nitro-phenanthrene-9,10-dione]	10 µM	–	–	–	–
–	–	O=C1C(=O)c2cccc([N+](=O)[O-])c2-c2ccc([N+](=O)[O-])cc21 [Example 95, 2,5-Dinitro-phenanthrene-9,10-dione]	≥ 30 µM	–	–	–	> 30 µM
2.4 µM	1 µM	O=C(O)c1ccc2c(c1)-c1ccccc1C(=O)C2=O [Example 98, 9,10-Dioxo-9,10-dihydro-phenanthrene-3-carboxylic Acid]	–	> 30 µM	–	–	–
3.4 µM	–	CC(C)(C)OC(=O)CNC(=O)c1ccc2c(c1)-c1ccccc1C(=O)C2=O [Example 102, [(9,10-dioxo-9,10-dihydro-phenanthrene-3-carbonyl)-amino]-acetic acid tert-butyl ester]	2.5 µM	0.3 µM	–	–	–

SMILES	IC50 (CD45 [1])	IC50 (CD45 [3]; [4])	CC50 [2]	IC50 (T cells (PBMC); [5])	IC50 (CD45 [3])	IC50 (CD45 [3]; pH 7, read-out: pNPP IC50)	IC50 (T cells (PBMC); Homo sapiens)
NC(=O)CC[C@H](NC(=O)c1ccc2c(c1)-c1ccccc1C(=O)C2=O)C(=O)N[C@@H](CCC(N)=O)C(=O)N1CCC[C@H]1C(=O)N[C@@H](CCC(=O)O)C(=O)NCC(=O)O [Example 34] ({3Phenanthroyl(9,10-dioxo)}-QQPEG-OH)	1.9 µM	–	–	–	0.9 µM	–	–
NC(=O)CC[C@H](NC(=O)[C@@H]1CCCN1C(=O)[C@H](CCC(=O)O)NC(=O)CNC(=O)c1ccc2c(c1)-c1ccccc1C(=O)C2=O)C(=O)NCC(=O)O [Example 38] ({3Phenanthroyl(9,10-dioxo)}-GEPQG-OH)	2.2 µM	–	–	–	0.7 µM	–	–
